Experimental data reported in patent publication US4613602A, “Ranitidine derivative useful in the treatment of ulcer” (Magis Farmaceutici s.r.l., priority 1984, dated 1986).

Key:
[1] = Acute toxicity (LD50) in mouse, Lichtfield and Wilcoxon; details: in vivo, 14 days observation
From the text: (§1) The characteristics of high activity and of practical absence of side effects have been evaluated by studying the acute toxicity, the activity on indomethacin-induced ulcers, on gastric secretion, on histamine-inducedgastric hyperacidity, and on H2 --receptors of isolated uterus of guinea pig.
(§2) The acute toxicity has been studied on male and female mice of Swiss strain, and on albino male and female rats of Wistar strain, by administering the active principle by the oral way, by intravenous way, and by intramuscular way.
(§3) For each administering way envisaged, doses in geometrical progression have been tested.
(§4) At the end of the observation time period of 14 days, the LD50 and the related fiducial limits have been computated according to the method by Licthfield and Wilcoxon [Pharmacol. Exp. Theor., 118, 96-99 (1949)].

[2] = Acute toxicity (LD50) in rat, Lichtfield and Wilcoxon; details: in vivo, 14 days observation, read-out: DL50
From the text: as §1, §2, §3, §4

[3] = test system: indomethacin-induced ulcers; test: Anti-ulcer activity, indomethacin-induced ulcers in rat; assay type: in vivo; details: 25 mg/kg p.o.; for Inhibition percentage (ulcer): relative to control; for mm of ulcer: control 18.4
From the text: This activity has been evaluated by using the method of indomethacin-induced ulcers in rat [Bhargava, K. P., Gupta M. B. and Tangri, K. K.: European J. of Pharmacology, 22, 191-195 (1973)].
The product has been administered as dissolved in carboxymethylcellulose at 0.2% and Tween 80 at 1% concentration.

[4] = test system: gastric secretion induced by histamine; test: Anti-H2 activity, gastric secretion in rats in vivo induced by histamine; design: species or system rat; details: 50 mg/kg i.p.; for pH variation from the beginning of the treatment / Area: mean ± ES; for Area: control 184.93, *p ≤ 0.01, **p ≤ 0.01
Experimental: Anti-H2 activity. Gastric secretion in rats in vivo induced by histamine. The anti-secretory activity has been studied by the method by Gosh, M. N., Schild, M. O. [Brit. J. Pharmacol., 13, 54 (1958)]. | Antihistaminic anti-H2 activity, gastric secretion in rats, in vivo, | induced by histamine. | Histamine perfused into vein 200 μg/kg/min at the flow rate of 0.1 | ml/min. | Perfusion of stomach with 0.00025 N NaOH at the flow rate of 1 | ml/min.

[5] = target: T1, H2-receptors (Rattus norvegicus, UniProt P25102); test: Antagonism to histamine in isolated uterus of female rat under estrus; details: for Relaxation with histamine 10^-2 g/l, after the administration / Relaxation with histamine 10^-2 g/l, Δ: basal value 11.5
T1 construct: functional antagonism of histamine-induced relaxation

[6] = test system: mice and rats; test: Acute toxicity, overall comparison (mouse and rat); assay type: in vivo; details: whole of the data of Table 1
From the text: as §1, §2, §3, §4

[7] = test system: gastric secretion; test: Therapeutical activity, overall statement; details: in vivo
[8] = im, intramuscular administering, read-out: DL50
[9] = intravenous administering, read-out: DL50
[10] = oral administering, read-out: DL50 (95 fiducial limits)
[11] = im, intramuscular administering

T1 sequence (P25102 whole entry): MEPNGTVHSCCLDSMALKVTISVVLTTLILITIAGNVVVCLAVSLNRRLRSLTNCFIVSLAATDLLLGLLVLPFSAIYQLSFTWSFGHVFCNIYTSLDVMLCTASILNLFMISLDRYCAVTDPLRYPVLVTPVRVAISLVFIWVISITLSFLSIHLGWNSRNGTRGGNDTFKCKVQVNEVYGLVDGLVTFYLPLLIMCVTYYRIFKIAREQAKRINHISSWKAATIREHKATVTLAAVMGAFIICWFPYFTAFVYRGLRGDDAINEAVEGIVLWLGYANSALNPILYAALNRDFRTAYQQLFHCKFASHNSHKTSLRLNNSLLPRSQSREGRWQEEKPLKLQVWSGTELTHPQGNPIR

SMILES	LD50 at 336 h [1, 8]	LD50 at 336 h [1, 9]	LD50 at 336 h [1, 10]	LD50 at 336 h [2, 11]	LD50 at 336 h ([2]; intravenous administering)	LD50 at 336 h ([2]; oral administering)	Inhibition percentage (ulcer) [3]	mm of ulcer [3]	pH variation from the beginning of the treatment ([4]; 0 min)	% Δ (percent increase of area relatively to the control) [4]	Area [4]	pH variation from the beginning of the treatment ([4]; 5 min)	pH variation from the beginning of the treatment ([4]; 10 min)	pH variation from the beginning of the treatment ([4]; 15 min)	pH variation from the beginning of the treatment ([4]; 20 min)	pH variation from the beginning of the treatment ([4]; 25 min)	pH variation from the beginning of the treatment ([4]; 30 min)	pH variation from the beginning of the treatment ([4]; 35 min)	pH variation from the beginning of the treatment ([4]; 40 min)	pH variation from the beginning of the treatment ([4]; 45 min)	also measured
CN(C)Cc1ccc(CSCCNC(=C[N+](=O)[O-])N2CCN(C)CC2)o1 [Methylpiperazino-ranitidine, 1-N-[2-[[5-[(dimethylamino)-methyl]-furfuryl]-thio]-ethyl]-amino-1-[4-methylpiperazino]-2-nitroethene]	300 mg/kg	120 mg/kg	2610 mg/kg	2000 mg/kg	110 mg/kg	5500 mg/kg	85.9 percentage	2.6 mm	8.68 pH	32.84%	245.67 mm^2	7.21 pH	5.85 pH	4.62 pH	4.43 pH	4.39 pH	4.27 pH	4.06 pH	4.05 pH	3.97 pH	anti-ulcer activity compared with ranitidine [3]: same anti-ulcer activity as ranitidine; action prolonged in time, pH value from the 35th to the 60th minute [4]: from the 35th to the 60th minute the pH value remains nearly constant; pH variation from the beginning of the treatment ([4]; 50 min): 3.92 pH; pH variation from the beginning of the treatment ([4]; 55 min): 3.99 pH; pH variation from the beginning of the treatment ([4]; 60 min): 3.95 pH; Relaxation with histamine 10^-2 g/l, after the administration ([5]; 6.75 × 10^-3 g/l, N° 5): 2.5; Relaxation with histamine 10^-2 g/l, Δ ([5]; 6.75 × 10^-3 g/l, N° 5): 9; inhibition at 6.75 µg/mL ([5]; rat, 6.75 × 10^-3 g/l, N° 5, read-out: Inhibition percentage (relaxation with histamine 10^-2 g/l)): 78.2%; toxicity compared with ranitidine [6]: constantly results less toxic than ranitidine; therapeutical activity compared with ranitidine [7]: practically overlapping to that of ranitidine
CNC(=C[N+](=O)[O-])NCCSCc1ccc(CN(C)C)o1 [Ranitidine, ranitidine]	280 mg/kg	80 mg/kg	1700 mg/kg	2020 mg/kg	93 mg/kg	> 5000 mg/kg	84.2 percentage	2.9 mm	8.80 pH	45.47%	269.02 mm^2	6.12 pH	4.06 pH	4.06 pH	4.28 pH	4.48 pH	4.67 pH	4.89 pH	5.16 pH	5.33 pH	pH variation from the beginning of the treatment ([4]; 50 min): 5.40 pH; pH variation from the beginning of the treatment ([4]; 55 min): 5.57 pH; pH variation from the beginning of the treatment ([4]; 60 min): 5.69 pH; Relaxation with histamine 10^-2 g/l, after the administration ([5]; 5 × 10^-3 g/l, N° 5): 3; Relaxation with histamine 10^-2 g/l, Δ ([5]; 5 × 10^-3 g/l, N° 5): 8.5; inhibition at 5 µg/mL ([5]; rat, read-out: Inhibition percentage (relaxation with histamine 10^-2 g/l)): 73.9%
